For series [1], the system named is EpCAM. The experiment in a line: Immunofluorescence staining of paraffin embedded xenograft tumour sections. Further details: species or system human; key to Quantification of anti-EpCAM staining by immunofluorescence: ‘−’ no staining; ‘+’ faint incomplete staining in >10% of cells; ‘++’ moderate complete membrance staining; ‘+++’ strong complete membrance staining. The settings on record: for Quantification of anti-EpCAM staining by immunofluorescence: U118MG xenograft. As to the method:
(§1) A: Immunofluorescence staining of breast cancer (T47D, MCF7 and MDA-MB-231), colon cancer (HT-29) and glioblastoma (U118MG) xenograft tumours by EpCAM aptamers, DT3 and 23, control aptamer and the anti-EpCAM antibody, 323/A3 (Blue: nuclei; Red: EpCAM positive staining). B: Immunohistochemistry was performed with the anti-EpCAM antibody BerEP4, and all tumours were evaluated by haematoxylin and eosin staining for morphological confirmation. Aptamer staining was performed for 15 min at 37° C., while 323/A3 staining was performed at 4° C. overnight and BerEP4 was performed at room temperature for 20 min. All fluorescent images were taken at 60×, while light microscopy images were taken at 20×. Images are representative of at least three separate experiments. Scale bar: 50 μm.
(§2) The cell lines of human origin used in this study were purchased from American type Culture Collection. They were glioblastoma U118-MG; breast carcinoma MCF-7, MDA-MB-231 and T47D; and colorectal adenocarcinoma HT-29. Cells were grown and maintained in culture with Dulbecco's Modified Eagle medium (DMEM) (Invitrogen, Victoria, Australia) supplemented with 10% fetal calf serum (MCF-7, T47D, HT-29, and U118-MG), or Roswell Park Memorial Institute 1640 (RPMI 1640) (Invitrogen) with 10% fetal calf serum (MDA-MB-231). Cells were maintained at 37 ^CC in a humidified atmosphere containing 5% CO2. For xenograft studies, single cell suspensions were harvested by trypsinisation, washed with PBS and resuspended in 0.1 mL of PBS for implantation in BALB/c-Foxn1 ^nu female mice. Once tumours had reached approximately […], they were excised and fixed in 10% neutral buffered formalin prior to processing and embedding. All animal procedures were approved by Deakin University Animal Welfare Committee, and in accordance with the Australian Code of Practice for the Care and Use of Animals for Scientific Purposes.
(§3) Sections from each of the xenograft tumours were cut at 4 μm onto polylysine coated slides prior to deparaffinisation with Histoclear and rehydration through graded ethanol. Heat induced antigen retrieval was performed in a microwave oven using Tris-EDTA buffer (10 mM Tris, 1 mM EDTA, 0.05% Tween 20, pH 9.0) for 20 min and the slides were allowed to cool prior to blocking with 0.1 mg/mL tRNA, 0.1 mg/mL salmon sperm DNA and 1 mg/mL bovine serum albumin (BSA) in phosphate buffered saline (PBS) for 20 min. Following the blocking step, slides were washed in PBS containing 0.1% Tween 20 twice for 2 min prior to incubation with either aptamer or antibody. Aptamers were prepared as previously described (Shigdar S et al, supra). Briefly, aptamers were heated to 85° C. for 5 min, allowed to cool to room temperature for 10 min and then heated at 37° C. for 15 min. Slides were incubated with aptamers at 100 nM concentration in a solution of PBS containing 5 mM MgCl2, 0.1 mg/mL tRNA, 1 mg/mL BSA, 10% dextran sulphate and 500 μg/mL heparin for 15 min at 37° C. The slides were then washed three times for 5 min each prior to incubation with Bisbenzimide Hoechst 33342 (3 μg/mL) for 10 min. Slides were then mounted using VECTASHIELD and coverslipped prior to visualisation using a Fluoview FV10i laser scanning confocal microscope. All images used for direct comparison were taken with identical exposure parameters and are presented without any digital contrast alteration or background subtraction. Antibody staining was performed using the anti-EpCAM antibody 323/A3 (ab8601, Abcam). […]

For series [2], the system named is HEK293T sphere that does not express EpCAM. The experiment in a line: Penetration of HEK293T sphere (specificity). Conditions: 4 h incubation, further 24 h culture. Type of series: cell-based, human. How it is done:
After four hour incubation with EpCAM antibody or aptamer 23 separately, the tumor spheres were washed twice with PBS and were cultured for a further 24 h followed by confocal microscopy. Panel A: fluorescence image for aptamer 23. Panel B: phase contrast for tumor sphere. Panel C: fluorescence image for anti-EpCAM antibody. Panel D: phase contrast image for tumour sphere.
To study the ability of EpCAM aptamer or antibody to penetrate tumors, the inventors used a three-dimensional in vitro tumor sphere model. […] After incubating for the indicated time, the spheres were washed twice with PBS and imaged via fluorescence confocal microscopy. A phase contrast image of the sphere was also taken for each sample. […] A retention study was performed whereby the tumour spheres were incubated with EpCAM antibody, aptamer-23 or control aptamer for 4 h, after washing with PBS twice, the tumor spheres were incubated with the culture medium for a further 24 h followed by confocal microscopy.

The target in series [3] is T1, EpCAM (Homo sapiens, UniProt P16422).
T1 sequence (P16422 24-314): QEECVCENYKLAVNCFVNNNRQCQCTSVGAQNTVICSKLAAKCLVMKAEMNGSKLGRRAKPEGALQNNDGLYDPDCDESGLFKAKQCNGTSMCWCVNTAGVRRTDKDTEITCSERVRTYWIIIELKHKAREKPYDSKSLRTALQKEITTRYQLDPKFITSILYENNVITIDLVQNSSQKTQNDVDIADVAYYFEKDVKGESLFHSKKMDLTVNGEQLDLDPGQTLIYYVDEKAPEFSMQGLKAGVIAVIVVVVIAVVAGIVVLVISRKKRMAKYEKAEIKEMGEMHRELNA
The experiment in a line: Immunofluorescence staining of paraffin embedded xenograft tumour sections. On the set-up: from tissue; host or cells: xenograft tumours of T47D, MCF7, MDA-MB-231, HT-29 and U118MG cells grown in BALB/c-Foxn1 nu mice, formalin-fixed and paraffin-embedded; key to Quantification of anti-EpCAM staining by immunofluorescence: ‘−’ no staining; ‘+’ faint incomplete staining in >10% of cells; ‘++’ moderate complete membrance staining; ‘+++’ strong complete membrance staining. How it is done: as §1, §2
as §3, with “Abcam). Slides were washed and blocked following the same protocol as previously described prior to antibody staining. The antibody was prepared at a concentration of 10 μg/mL and the slides were incubated overnight at 4° C. Slides were then washed three times for 5 min followed by incubation with a goat-anti-mouse IgG AlexaFluor 647 conjugate (Invitrogen) at a concentration of 10 μg/mL for 2 h prior to washing, staining with Bisbenzimide Hoechst 33342, and coverslipping.” for “Abcam).”

On to “5′-ACGUAUCCCUUUUCGCGUA-3′ (RNA aptamer, fluorescent dye conjugate used, modifications not given here, further chemistry not given here) [compound 23]”, for which the “Quantification of anti-EpCAM staining by immunofluorescence” value in series [1] is “−”; in series [3] (HT-29 xenograft) it was “+++”; in series [3] (MCF7 xenograft) it was “++”; in series [3] (MDA-MB-231 xenograft), “+ (‘+’ faint incomplete staining in >10% of cells)”; in series [3] (T47D xenograft) it was “+++”. Moreover, the “staining of U118MG xenograft (in words)” value in series [1] (U118MG xenograft that does not express EpCAM) is given as “no staining detectable”. For the same substance, the “binding to HEK293T sphere” value in series [2] is recorded as “minimal binding”. In series [3] (HT-29 colorectal cancer xenograft), the “staining of HT-29 xenograft sections (in words)” value is “strong positive staining”. Besides, the “detection of EpCAM in MDA-MB-231 xenograft tumour (in words)” value in series [3] (MDA-MB-231 xenograft, low EpCAM expression) is on record as “successfully detect EpCAM”. In series [3] (T47D, MCF7 and MDA-MB-231 xenografts, 100 nM, 15 min, 37° C., dextran sulphate and heparin), the “staining of human breast cancer xenografts (in words)” value is given as “highly sensitive staining”.

“5′-DY647-mGCmGACUmGmGUUmACCCmGmGUCmGdT-3′ (GCGACUGGUUACCCGGUCGN; 5' DY647, 2'-O-methyl, 3' dT, further chemistry not given here) [Control]”: the “Quantification of anti-EpCAM staining by immunofluorescence” value in series [1], in series [3] (HT-29 xenograft), in series [3] (MCF7 xenograft), in series [3] (MDA-MB-231 xenograft) and in series [3] (T47D xenograft) was “−” each time.

(Values after patent US9567586B2, “EpCAM aptamer for detection of cancer stem cells” (DEAKIN UNIVERSITY, priority 2012, dated 2017).)
